Several values for one entry are separate records, joined by “and”; a condition that tells them apart may be missing. Equal entries are not always repeated. Inconclusive results and toxic doses are left out.
System: BDF1 mice, L1210 leukemia sc, survival T/C
Assay: NCI In Vivo Anticancer Drug Screen. Data for tumor model L1210 Leukemia (subcutaneous) in B6D2F1 (BDF1) mice
Conditions: higher = longer survival
Procedure, shortened: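 Mice carrying transplanted tumors received test compounds, and survival or tumor size was measured. Values are the treated-group measurement (T) divided by that of the vehicle-treated control group (C).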

SMILES: CN(Cc1cnc2nc(N)nc(N)c2n1)c1ccc(C(=O)N[C@@H](CCC(=O)O)C(=O)O)cc1
- T/C (endpoint: mean survival time, dose: 0.65 mg/kg/injection, schedule: Q01DX009 (sc), vehicle: other): 166 % of control and 168 % of control
- T/C (endpoint: mean survival time, dose: 1.0 mg/kg/injection, schedule: Q01DX015 (ip), vehicle: other): 158 % of control and 163 % of control and 171 % of control
- T/C (endpoint: mean survival time, dose: 1.08 mg/kg/injection, schedule: Q01DX009 (sc), vehicle: other): 158 % of control
- T/C (endpoint: mean survival time, dose: 1.8 mg/kg/injection, schedule: Q01DX009 (sc), vehicle: other): 171 % of control
- T/C (endpoint: mean survival time, dose: 2.0 mg/kg/injection, schedule: Q01DX009 (ip), vehicle: sodium bicarbonate): 154 % of control and 166 % of control
- T/C (endpoint: mean survival time, dose: 4.0 mg/kg/injection, schedule: Q01DX009 (ip), vehicle: sodium bicarbonate): 88 % of control
- T/C (endpoint: mean survival time, dose: 20.0 mg/kg/injection, schedule: Q04DX003 (ip), vehicle: sodium bicarbonate): 158 % of control
- T/C (endpoint: mean survival time, dose: 45.0 mg/kg/injection, schedule: Q04DX004 (ip), vehicle: other): 99 % of control and 101 % of control
- T/C (endpoint: mean survival time, dose: 60.0 mg/kg/injection, schedule: Q04DX004 (ip), vehicle: other): 90 % of control and 105 % of control and 124 % of control
- T/C (endpoint: mean survival time, dose: 80.0 mg/kg/injection, schedule: Q04DX003 (ip), vehicle: sodium bicarbonate): 91 % of control
- T/C (endpoint: mean survival time, dose: 200.0 mg/kg/injection, schedule: Q01DX001 (ip), vehicle: other): 91 % of control and 111 % of control and 116 % of control
- T/C (endpoint: median survival time, dose: 0.01 mg/kg/injection, schedule: Q## X Z (sc), vehicle: other): 100 % of control
- T/C (endpoint: median survival time, dose: 0.02 mg/kg/injection, schedule: Q## X Z (sc), vehicle: other): 100 % of control
- T/C (endpoint: median survival time, dose: 0.03 mg/kg/injection, schedule: Q## X Z (sc), vehicle: other): 105 % of control
- T/C (endpoint: median survival time, dose: 0.05 mg/kg/injection, schedule: Q#A X Z (sc), vehicle: other): 105 % of control
- T/C (endpoint: median survival time, dose: 0.14 mg/kg/injection, schedule: Q#A X Z (sc), vehicle: other): 122 % of control
- T/C (endpoint: median survival time, dose: 0.17 mg/kg/injection, schedule: Q01DX Z (iv), vehicle: other): 112 % of control
- T/C (endpoint: median survival time, dose: 0.23 mg/kg/injection, schedule: Q01DX Z (ip), vehicle: other): 100 % of control
- T/C (endpoint: median survival time, dose: 0.23 mg/kg/injection, schedule: Q01DX Z (sc), vehicle: sodium bicarbonate): 109 % of control
- T/C (endpoint: median survival time, dose: 0.24 mg/kg/injection, schedule: Q01DX Z (sc), vehicle: other): 104 % of control and 108 % of control
- T/C (endpoint: median survival time, dose: 0.3 mg/kg/injection, schedule: Q01DX Z (sc), vehicle: other): 112 % of control
- T/C (endpoint: median survival time, dose: 0.39 mg/kg/injection, schedule: Q01DX006 (sc), vehicle: other): 110 % of control
- T/C (endpoint: median survival time, dose: 0.39 mg/kg/injection, schedule: Q01DX008 (sc), vehicle: other): 110 % of control
- T/C (endpoint: median survival time, dose: 0.39 mg/kg/injection, schedule: Q01DX009 (sc), vehicle: other): 122 % of control
- T/C (endpoint: median survival time, dose: 0.39 mg/kg/injection, schedule: Q01DX Z (ip), vehicle: other): 105 % of control
- T/C (endpoint: median survival time, dose: 0.47 mg/kg/injection, schedule: Q01DX Z (iv), vehicle: other): 112 % of control
- T/C (endpoint: median survival time, dose: 0.47 mg/kg/injection, schedule: Q01DX Z (oral), vehicle: other): 112 % of control
- T/C (endpoint: median survival time, dose: 0.65 mg/kg/injection, schedule: Q01DX008 (sc), vehicle: other): 155 % of control and 166 % of control
- T/C (endpoint: median survival time, dose: 0.65 mg/kg/injection, schedule: Q01DX009 (sc), vehicle: other): 169 % of control
- T/C (endpoint: median survival time, dose: 0.65 mg/kg/injection, schedule: Q01DX017 (sc), vehicle: sodium bicarbonate): 166 % of control
- T/C (endpoint: median survival time, dose: 0.65 mg/kg/injection, schedule: Q01DX Z (oral), vehicle: other): 90 % of control
- T/C (endpoint: median survival time, dose: 0.65 mg/kg/injection, schedule: Q02DX009 (sc), vehicle: other): 111 % of control
- T/C (endpoint: median survival time, dose: 0.65 mg/kg/injection, schedule: Q02DX Z (sc), vehicle: other): 111 % of control
- T/C (endpoint: median survival time, dose: 1.08 mg/kg/injection, schedule: Q01DX006 (sc), vehicle: other): 150 % of control
- T/C (endpoint: median survival time, dose: 1.08 mg/kg/injection, schedule: Q01DX008 (sc), vehicle: other): 160 % of control and 166 % of control
- T/C (endpoint: median survival time, dose: 1.08 mg/kg/injection, schedule: Q01DX009 (ip), vehicle: sodium bicarbonate): 156 % of control and 166 % of control and 168 % of control
- T/C (endpoint: median survival time, dose: 1.08 mg/kg/injection, schedule: Q01DX017 (sc), vehicle: sodium bicarbonate): 158 % of control
- T/C (endpoint: median survival time, dose: 1.08 mg/kg/injection, schedule: Q01DX Z (ip), vehicle: other): 160 % of control
- T/C (endpoint: median survival time, dose: 1.08 mg/kg/injection, schedule: Q01DX Z (oral), vehicle: other): 110 % of control
- T/C (endpoint: median survival time, dose: 1.08 mg/kg/injection, schedule: Q02DX009 (sc), vehicle: other): 119 % of control
- T/C (endpoint: median survival time, dose: 1.08 mg/kg/injection, schedule: Q02DX Z (sc), vehicle: other): 122 % of control
- T/C (endpoint: median survival time, dose: 1.08 mg/kg/injection, schedule: Q#A X Z (sc), vehicle: other): 166 % of control
- T/C (endpoint: median survival time, dose: 1.5 mg/kg/injection, schedule: Q01DX009 (ip), vehicle: sodium bicarbonate): 155 % of control and 167 % of control
- T/C (endpoint: median survival time, dose: 1.8 mg/kg/injection, schedule: Q01DX006 (sc), vehicle: other): 155 % of control
- T/C (endpoint: median survival time, dose: 1.8 mg/kg/injection, schedule: Q01DX008 (sc), vehicle: other): 160 % of control
- T/C (endpoint: median survival time, dose: 1.8 mg/kg/injection, schedule: Q01DX009 (ip), vehicle: sodium bicarbonate): 166 % of control and 171 % of control
- T/C (endpoint: median survival time, dose: 2.89 mg/kg/injection, schedule: Q01DX Z (ip), vehicle: other): 155 % of control
- T/C (endpoint: median survival time, dose: 3.0 mg/kg/injection, schedule: Q01DX006 (sc), vehicle: other): 160 % of control and 166 % of control
- T/C (endpoint: median survival time, dose: 3.0 mg/kg/injection, schedule: Q01DX008 (sc), vehicle: other): 160 % of control
- T/C (endpoint: median survival time, dose: 3.0 mg/kg/injection, schedule: Q01DX010 (sc), vehicle: other): 161 % of control
- T/C (endpoint: median survival time, dose: 3.0 mg/kg/injection, schedule: Q01DX012 (ip), vehicle: sodium bicarbonate): 122 % of control
- T/C (endpoint: median survival time, dose: 3.0 mg/kg/injection, schedule: Q01DX Z (oral), vehicle: other): 160 % of control
- T/C (endpoint: median survival time, dose: 3.0 mg/kg/injection, schedule: Q02DX009 (sc), vehicle: other): 164 % of control
- T/C (endpoint: median survival time, dose: 3.0 mg/kg/injection, schedule: Q02DX Z (sc), vehicle: other): 166 % of control
- T/C (endpoint: median survival time, dose: 3.02 mg/kg/injection, schedule: Q01DX Z (sc), vehicle: other): 166 % of control
- T/C (endpoint: median survival time, dose: 3.64 mg/kg/injection, schedule: Q01DX Z (sc), vehicle: other): 166 % of control
- T/C (endpoint: median survival time, dose: 3.9 mg/kg/injection, schedule: Q01DX Z (sc), vehicle: other): 150 % of control
- T/C (endpoint: median survival time, dose: 4.0 mg/kg/injection, schedule: Q01DX Z (sc), vehicle: water): 155 % of control
- T/C (endpoint: median survival time, dose: 4.7 mg/kg/injection, schedule: Q01DX Z (sc), vehicle: other): 166 % of control
- T/C (endpoint: median survival time, dose: 5.0 mg/kg/injection, schedule: Q01DX009 (ip), vehicle: sodium bicarbonate): 166 % of control and 171 % of control
- T/C (endpoint: median survival time, dose: 5.0 mg/kg/injection, schedule: Q01DX025 (sc), vehicle: other): 168 % of control
- T/C (endpoint: median survival time, dose: 5.0 mg/kg/injection, schedule: Q01DX Z (sc), vehicle: sodium bicarbonate): 100 % of control
- T/C (endpoint: median survival time, dose: 6.0 mg/kg/injection, schedule: Q01DX009 (ip), vehicle: sodium bicarbonate): 119 % of control
- T/C (endpoint: median survival time, dose: 6.0 mg/kg/injection, schedule: Q01DX Z (oral), vehicle: other): 156 % of control
- T/C (endpoint: median survival time, dose: 14.0 mg/kg/injection, schedule: Q## X Z (sc), vehicle: other): 109 % of control and 113 % of control
- T/C (endpoint: median survival time, dose: 62.5 mg/kg/injection, schedule: Q01DX001 (sc), vehicle: other): 111 % of control
- T/C (endpoint: median survival time, dose: 65.0 mg/kg/injection, schedule: Q04DX005 (sc), vehicle: sodium bicarbonate): 108 % of control
- T/C (endpoint: median survival time, dose: 65.0 mg/kg/injection, schedule: Q## X Z (sc), vehicle: other): 152 % of control
- T/C (endpoint: median survival time, dose: 100.0 mg/kg/injection, schedule: Q01DX001 (sc), vehicle: sodium bicarbonate): 150 % of control
- T/C (endpoint: median survival time, dose: 108.0 mg/kg/injection, schedule: Q## X Z (sc), vehicle: other): 117 % of control
- T/C (endpoint: median survival time, dose: 125.0 mg/kg/injection, schedule: Q01DX001 (sc), vehicle: other): 116 % of control

From PubChem BioAssay AID250 (DTP/NCI, 2004)
